Reference: US20040224884A1, “Methods of screening for apoptosis-controlling agents for bone anabolic therapies and uses thereof” (priority 1998, published 2004)
Where “and” joins values, the source holds several entries; their conditions need not be identical. Equal entries are not always repeated.

Assays:
[1] = BMD by dual-energy x-ray absorptiometry in intact or ovariectomized mice; assay type: in vivo; design: global 1 BMD / hindquart BMD (1) / spine 1 BMD / global 2 BMD / hindquart BMD (2) / spine 2 BMD / global 1 BMD (mean) / hindquart BMD (1) (mean) / spine 1 BMD (mean) / global 2 BMD (mean) / hindquart BMD (2) (mean) / spine 2 BMD (mean): unit not given here; details: for Global BMD: 2000 ng/g body weight for 28 days; for global 2 BMD / hindquart BMD (2) / spine 2 BMD / global 2 BMD (mean) / hindquart BMD (2) (mean) / spine 2 BMD (mean): 2000 ng/g for 28 days, end of experiment; for global 2 BMD / hindquart BMD (2) / spine 2 BMD / global 1 BMD / hindquart BMD (1) / spine 1 BMD: individual animals; for global 1 BMD / hindquart BMD (1) / spine 1 BMD / global 1 BMD (mean) / hindquart BMD (1) (mean) / spine 1 BMD (mean): 2000 ng/g group, day 0 (initial)
Procedure: In a representative experiment of this sort, six 4-5 month old female mice per group are screened twice for BMD in a four week period immediately prior to the initiation of the experiment to establish that peak adult bone mass has been attained. A subset of mice are then ovariectomized. Intact and ovariectomized mice are treated with vehicle, or 20, 200 or 2000 ng/g body weight estratriene-3-ol or another test compound.
Stock solutions of the test agents (10,000 μg/ml) are maintained in approximately 2.0 ml of 95% ethanol. These stocks are diluted in 95% ethanol to make 1000 μg/ml and 100 μg/ml concentrations. The concentration of the stocks is checked spectrophotometrically. For each animal injection, the test agent is diluted in sesame oil and sonicated. Test agents are administered for 28 days by subcutaneous injections on alternative days. The mice are weighed weekly and serum samples are collected at appropriate times for analysis of bone biochemical markers, such as osteocalcin or collagen cross-links. Tetracycline labeling is performed by administration of the antibiotic (30 mg/kg) at 2 and 8 days prior to the end of each experiment.
During the 28 day experiment, BMD is determined in live animals at day 0, 14 and 28. Following animal sacrifice at the end of the experiment, the vertebral bones L1-L4 are collected for fixation and embedded undecalcified in methyimethacrylate plastic for the determination of the prevalence of osteoblast and osteocyte apoptosis and other static and dynamic histomorphometric measurements. L5 vertebrae are isolated for determining anti-fracture efficacy of the compounds by assaying compression, 3 point bending and other appropriate biomechanical tests. Results confirming the expected efficacy of these compounds show decreased prevalence of osteoblast and/or osteocyte apoptosis, and/or positive BMD changes, and/or increased cancellous bone area, and/or increased rate of bone formation, and/or increased biomechanical strength.
As an example, the results of an experiment whereby 2000 ng/g body weight of estratriene-3-ol was administered for 28 days to estrogen-replete (intact) or estrogen-deficient (ovariectomized) mice are shown in Table 2.
Each row represents values for individual animals. The first three sets of numbers represent the initial BMD measurements (by dual-energy x-ray absorptiometry with Hologic QDR2000 plus, using customized software) at day 0 and the last three BMD measurements at the end of the experiment. Global=BMD of the entire skeleton minus the head and tail; hindquarters=the mean BMD of both hindlimbs; spine=the BMD of cervical, thoracic and lumbar spine.

[2] = tested on: extracellular signal regulated kinases (ERKs) 1 and 2; experiment: Western blot of phosphorylated ERK1/2 in MLO-Y4 cells; assay type: cell-based, murine
Procedure: (§1) MLO-Y4 osteocytic cells were incubated for 25 minutes in serum -free medium. […] Cell lysates were prepared and proteins were separated by electrophoresis in polyacrylamide gels and transferred to PVDF membranes. Western blotting was performed using a specific antibody recognizing phosphorylated ERKs 1 and 2, followed by reblotting with an antibody recognizing total ERKs. Blots were developed by enhanced chemiluminescence.
as §1, with “MLO-Y4” for “MLO-Y4 osteocytic”, “serum-free medium in the presence or absence of 50 μM PD98059.” for “serum -free medium.”
as §1, with “In this experiment, MLO-Y4” for “MLO-Y4”, “serum-free” for “serum -free”, “extracellular signal regulated kinases” for “ERKs”, “extracellular signal regulated kinases.” for “ERKs.”, “chemiluminescence. […] This effect is too rapid to be accounted for by the classical mechanism of estrogen action.” for “chemiluminescence.”
as §1, with “In this experiment, MLO-Y4” for “MLO-Y4”, “serum-free medium in the presence or absence of 50 μM PD98059.” for “serum -free medium.”, “extracellular signal regulated kinases” for “ERKs”, “extracellular signal regulated kinases.” for “ERKs.”

## C[C@@]12CCC[C@H]1[C@@H]1CCc3cc(O)ccc3[C@H]1CC2 [estratriene-3-ol]
[1]; Ovx mice, p < 0.00001
  Global BMD: 0.0555 ± 0.0011 g/cm2
[1]; Ovx mice
  global 2 BMD: 0.0565 and 0.0557 and 0.0548 and 0.0545 and 0.0564 and 0.0568 and 0.0550 and 0.0539
  hindquart BMD (2): 0.0602 and 0.0632 and 0.0599 (2×) and 0.0624 and 0.0598 and 0.0647 and 0.0630
  spine 2 BMD: 0.0608 and 0.0585 and 0.0584 and 0.0598 and 0.0610 and 0.0625 and 0.0578 and 0.0605
  global 2 BMD (mean): 0.0555
  hindquart BMD (2) (mean): 0.0618
  spine 2 BMD (mean): 0.0599
  global 1 BMD: 0.0505 and 0.0542 and 0.0496 and 0.0540 and 0.0526 and 0.0569 and 0.0565 and 0.0528
  hindquart BMD (1): 0.0527 and 0.0588 and 0.0504 and 0.0596 and 0.0547 and 0.0604 and 0.0591 and 0.0582
  spine 1 BMD: 0.0547 and 0.0581 and 0.0542 and 0.0586 and 0.0580 and 0.0628 and 0.0603 and 0.0568
  global 1 BMD (mean): 0.0534
  hindquart BMD (1) (mean): 0.0573
  spine 1 BMD (mean): 0.0579
[1]; intact mice, p < 0.002
  Global BMD: 0.0554 ± 0.0015 g/cm2
[1]; intact mice
  global 2 BMD: 0.0550 and 0.0543 and 0.0541 and 0.0568 (2×) and 0.0537 and 0.0574
  hindquart BMD (2): 0.0585 and 0.0603 and 0.0619 and 0.0629 and 0.0640 and 0.0554 and 0.0605
  spine 2 BMD: 0.0602 and 0.0604 and 0.0601 and 0.0613 and 0.0620 and 0.0588 and 0.0632
  global 2 BMD (mean): 0.0554
  hindquart BMD (2) (mean): 0.0605
  spine 2 BMD (mean): 0.0609
  global 1 BMD: 0.0486 and 0.0511 and 0.0543 and 0.0537 and 0.0533 and 0.0521 and 0.0560
  hindquart BMD (1): 0.0509 and 0.0565 and 0.0605 and 0.0577 and 0.0546 and 0.0544 and 0.0587
  spine 1 BMD: 0.0511 and 0.0560 and 0.0593 and 0.0584 and 0.0571 and 0.0555 and 0.0623
  global 1 BMD (mean): 0.0527
  hindquart BMD (1) (mean): 0.0562
  spine 1 BMD (mean): 0.0571
[2]; 10^−8 M, 5, 15 or 30 minutes
  activation (phosphorylation) of ERKs: activated
[2]; 10^−8 M, 5 minutes, 50 μM PD98059
  ability to activate ERKs in the presence of PD98059: abrogated
